Source: patent US6469027B1, “N-methyl-D-aspartate (NMDA) receptor blockers for the prevention of atherosclerosis” (The Board of Regents of the University of Nebraska, priority 1996, dated 2002)
Entries after “also recorded” stand apart in the source; their conditions may differ.

Key:
[1] = tested on: mouse aortic smooth muscle cells; assay: 3H thymidine uptake / mitogenic effect in mouse aortic smooth muscle cells; assay type: cell-based
Method: The mitogenic and other effects of growth factors are exaggerated in late embryonic or fetal smooth muscle cells, and cells in the late fetal state provide a high contrast picture of their subsequent, post-natal, responses. To take advantage of this effect, late fetal C57BL/6×129 mice were obtained and aortic smooth muscle cell cultures were prepared according to the inventors' previously published methods set forth above. These cells were treated with a series of Hcy dilutions (10 μM-100 μM) as described above. […] Subsequently, the fetal mouse smooth muscle cells were treated with a number of variations of the incubation medium containing the Hcy. In no case did Hcy produce a measurable mitogenic effect. […] Aortic smooth muscle cells were obtained from mice of this strain that were 3-6 months old, and were treated with various concentrations of Hcy.

[2] = tested on: Thoracic aorta VSMC from E14 embryos; assay: Intracellular Ca++ by Fura 2 fluorometry; assay type: cell-based, chicken; conditions: 200 μM Hcy
Method: FIGS. 8A and 8B are graphs illustrating E14 embryonic neural crest-derived response to Hcy. (A) Normal E14 cell response; (B) Ca++ influx is prevented by 15 min pretreatment with NMDA receptor blocker MK801, which acts at the NMDA receptor calcium channel.
The most common signaling device for mitosis is calcium influx. Therefore, the inventors measured the change in intracellular Ca^++ by Fura 2 fluorometry. Thoracic aorta VSMC from E14 embryos were harvested and grown on coverslips using the procedure set forth above. Fura 2 was added during 45 minutes at room temperature. Then the cover slips were placed in a photometer. Fura 2 was excited at 350 and 380 nm with a xenon light source, appropriate monochromators and a chopper (Deltascan, Princeton). Emitted signals passed through a 510±20 band pass filter. When the cells were treated with a solution of 200 μM Hcy, there was a rapid flux of Ca^++ that reached a plateau in about 50 seconds, and remained elevated for the duration of the 500 sec measurement interval as shown in FIGS. 8A and 8B. Similar results have been found with adult rabbit aortic smooth muscle cells, as set forth below.

PDGG-AA = PDGG-AA release from TA-VSMCs; assay type: cell-based; conditions: 0.2 mM
Myb protein = assay: Expression of Myb protein in rabbit aortic cells; assay type: cell-based
Method: For each of the following experiments, aortic smooth muscle cells were obtained from 2-3 lb. New Zealand rabbits; these cells were cultured as described above, and evaluated for their responses to Hcy.

TA-VSMCs = assay: [3H]thymidine labeling (DNA synthesis) in TA-VSMCs; assay type: cell-based; conditions: 0.1 to 1 mM
From the text: Effect of calcium channel activation on DNA synthesis. Effect of glutamate receptor calcium channels and L-type calcium channels activation was examined by measuring [^3H]thymidine labeling.

N[C@@H](CCS)C(=O)O [homocysteine]
mitogenic effect ([1]; adult C57Bl/6 mice 3-6 months old, various concentrations, listed as Hcy): no mitogenic effect; also recorded: No mitogenic result
3H thymidine uptake ([1]; late fetal C57BL/6×129 mice, 10 μM-100 μM): no enhancement
time for Ca++ flux to reach a plateau [2]: about 50 seconds
delay in PDGG-AA release (PDGG-AA): not observed
expression of the Myb protein (Myb protein): dose-responsive expression
DNA synthesis increased (TA-VSMCs): 6 fold
